Experimental data: patent publication US12133855B2, “Lipid-like nanocomplexes and uses thereof” (Trustees of Tufts College, priority 2018, dated 2024)

Experiments:
[1] = test system: Jurkat (human T lymphocyte cells); test: GFP mRNA delivery (GFP+ cells); type: cell-based; conditions: LNP/mRNA=10/1, [mRNA]=0.86 μg mL^−1, 24 h
Description: (§1) To examine the delivery spectrum of the newly developed LNPs, the GFP mRNA loaded OCholB LNPs were then challenged against other four types of cell lines. B16F10 (mouse melanoma cells), HEK 293 (human embryonic kidney cells), NIH 3T3 (mouse embryonic fibroblast cells) and Jurkat (human T lymphocyte cells) cells were tested (LNP/mRNA=10/1; [mRNA]=0.86 μg mL^−1; 24 h exposure) and the results are shown in FIG. 14D. As the positive control, Lpf2k turned out to be very efficient to deliver GFP mRNA into B16F10 (63.2% of GFP^+ cells), HEK 293 (80.1%) and NIH 3T3 (70.1%) cells, while slightly less efficient to Jurkat cell (28.7%), which is usually considered to be one of the most difficult-to-transfect cell lines. […] For example, 63.0%, 60.9%, 54.1% and 50.1% of GFP^+ cells were determined from mRNA/75-OCholB treated B16F10, HEK 293, NIH 3T3 and Jurkat cells; and the numbers for mRNA/76-OCholB treated cells were 70.7%, 75.8%, 24.1% and 7.7%, respectively. It was obvious that not only the types of lipidoids, but also the target cell lines could have huge impacts on the delivery efficacy. Overall, the positive control, Lpf2k, is a relatively high-activity broad-spectrum transfection reagent; most of the OCholB LNPs (6 out of 9) are also effective broad-spectrum transfection reagents under the tested conditions. […] It was expected that through further formulation optimization, such as adding excipients (helper lipids like small molecular phospholipids (e.g. DOPE and DSPC) and macromolecules lipids (e.g. PEG-DSPE and PEG-Ceramide)) into the LNPs and/or using more controllable self-assembly procedures, improved transfection efficiency of the fully substituted OCholB LNPs could be achieved.

[2] = test system: Ai14 mice; test: In vivo genome editing, intravenous injection, tdTomato expression; parameters: species or system mouse; conditions: day 14
Description: Similar to the in vitro transfection study, lipidoid nanoparticles were prepared for mRNA or protein loading and in vivo delivery. Ai14 mice were housed in a temperature and humidity controlled facility with a 12 h light/dark cycle. Three mice in each group were injected (intravenously or intramuscularly) with Cre mRNA-loaded or (−30)GFP-Cre protein-loaded LNPs formulations. Organs including heart, liver, spleen, lung and kidney from all groups were collected at day 10 (intramuscular injection) or 14 (intravenous injection) after injection. The tissues were fixed overnight in 4% paraformaldehyde (PFA) and dehydrated in 30% sucrose before being froze in OCT and sectioned into 10-15 μm slices. The slices were then collected and stained with DAPI for fluorescence imaging (BZ-X Analyzer fluorescence microscopy).
Cre-loxP system and transgenic Ai14 mouse model were used in the in vivo genome editing study. […] When the Cre recombinase mediated gene reorganization occurs, the STOP cassette could be removed, resulting in the expression of fluorescent tdTomato reporter protein.
The OCholB LNPs was further investigated if they can induce successful gene editing in vivo through a systemic administration pathway. At first, Ai14 mice (n=3) were injected through tail vein (intravenous (IV) injection) with (−30)GFP-Cre protein loaded LNPs at day 1 and 5 (50 μg protein for each injection; 100 μg in total), then sacrificed at day 14 for analysis (FIG. 17C). […] The heart, liver, spleen, lung and kidney from each group were collected and analyzed. […] Like most intravenous nano-therapeutics, the (−30)GFP-Cre protein complexed OCholB nanoparticles injected through tail vein would travel first to the heart, and from there directly to the lung. The nanoparticle formulations (which may have complexed with serum proteins) could be easily trapped in the vasculature structures in the capillary bed of the lung, delaying or inhibiting the redistribution of LNPs to the liver, spleen and other organs. During the in vivo transport and redistribution process, some of the protein loaded LNPs may successfully enter into the cells in lung or spleen to induce the genome editing and tdTomato expression cascade. Degradation, aggregation and/or immune cells sequestration of the cargo protein and carrier LNPs would dramatically reduce or perhaps even prohibit genome editing events.
Next, in vivo systemic mRNA delivery using OCholB LNPs was tested using a similar intravenous injection protocol (FIG. 17C). Cre mRNA loaded 76-OCholB LNPs were injected at day 1 and day 5 (10 μg mRNA for each injection; 20 μg in total), and mice were sacrificed at day 14. All the major organs (heart, liver, spleen, lung and kidney) were collected and analyzed. […]

[3] = TEM size of lipidoid nanoparticles; type: physicochemical; conditions: TEM images of LNPs
Description: All chemicals used for lipidoids synthesis were purchased from Sigma-Aldrich without further purification unless otherwise noted. (−30)GFP-Cre recombinase, S. pyogenes Cas9 (spCas9) and sgRNA were generated following the protocols reported in Wang at al., Proc. Natl. Acad. Sci. USA, 2016, 113, 2868-2873 (“Wang”). HeLa-DsRed and GFP-HEK cells were cultured in Dulbecco's modified eagle's medium (DMEM, Sigma-Aldrich) with 10% fetal bovine serum (FBS, Sigma-Aldrich) and 1% penicillin-streptomycin (Gibco). All ^1H NMR spectra were recorded on a Bruker AVIII 500 MHz NMR spectrometer operated in the Fourier transform mode. Hydrodynamic size and polydispersity index of nanoparticles were measured by Zeta-PALS particle size analyzer (Brookhaven Instruments). The apparent pKa values of lipidoids were determined using 2-(p-toluidinynaphthalene-6-sulphonic acid) (TNS, Sigma-Aldrich) as fluorescent probe following the protocols reported in Heyes et al., J. Controlled Release, 2005, 107, 276-287. TEM measurements were performed on a FEI Technai Transmission Electron Microscope. Fluorescence images of tissue slices were obtained using BZ-X Analyzer fluorescence microscope.
The morphologies of LNPs were further studied by the transmission electron microscopy (TEM). […] Subsequently, the stability of LNPs thus prepared was examined by DLS and fluorescence measurements.
The morphologies of OCholB fully substituted LNPs were then examined by transmission electron microscopy (TEM). […] In contrast, the vesicular structures were not well-formed for 87-OCholB and 90-OCholB compared to their counterparts, and amorphous aggregates were observed instead.

[4] = test system: B16F10 (mouse melanoma cells); test: GFP mRNA delivery (GFP+ cells); type: cell-based; conditions: LNP/mRNA=10/1, [mRNA]=0.86 μg mL^−1, 24 h
Description: as §1

[5] = test system: HEK 293 (human embryonic kidney cells); test: GFP mRNA delivery (GFP+ cells); type: cell-based; conditions: LNP/mRNA=10/1, [mRNA]=0.86 μg mL^−1, 24 h
Description: as §1

[6] = test system: NIH 3T3 (mouse embryonic fibroblast cells); test: GFP mRNA delivery (GFP+ cells); type: cell-based; conditions: LNP/mRNA=10/1, [mRNA]=0.86 μg mL^−1, 24 h
Description: as §1

[7] = (−30)GFP-Cre loaded, IV day 1 and 5, 50 μg protein each
[8] = Cre mRNA loaded, IV day 1 and 5, 10 μg mRNA each

CC(C)CCCC(C)C1CCC2C3CC=C4CC(OC(=O)NCCSSCCOC(=O)CCN(CCC(=O)OCCSSCCNC(=O)OC5CCC6(C)C(=CCC7C6CCC6(C)C(C(C)CCCC(C)C)CCC76)C5)CCC5CCCN5C)CCC4(C)C3CCC12C (centres unmarked) [Lipidoid 77-OCholB]
GFP^+ cells [1]: particular advantages over Lpf2k

CC(C)CCCC(C)C1CCC2C3CC=C4CC(OC(=O)NCCSSCCOC(=O)CCN(CCCN(C)C)CCC(=O)OCCSSCCNC(=O)OC5CCC6(C)C(=CCC7C6CCC6(C)C(C(C)CCCC(C)C)CCC76)C5)CCC4(C)C3CCC12C (centres unmarked) [Lipidoid 80-OCholB]
genome editing efficacy in the lung [2, 7]: Relative high genome editing efficacy

CC(C)CCCC(C)C1CCC2C3CC=C4CC(OC(=O)NCCSSCCOC(=O)CCN(CCC(=O)OCCSSCCNC(=O)OC5CCC6(C)C(=CCC7C6CCC6(C)C(C(C)CCCC(C)C)CCC76)C5)CCN(C)C)CCC4(C)C3CCC12C (centres unmarked) [Lipidoid 78-OCholB]
GFP^+ cells [1]: particular advantages over Lpf2k

CCN(CC)CCCN(CCC(=O)OCCSSCCNC(=O)OC1CCC2(C)C(=CCC3C2CCC2(C)C(C(C)CCCC(C)C)CCC32)C1)CCC(=O)OCCSSCCNC(=O)OC1CCC2(C)C(=CCC3C2CCC2(C)C(C(C)CCCC(C)C)CCC32)C1 (centres unmarked) [Lipidoid 81-OCholB]
size measured by TEM [3]: 216.9 nm

CCN(CC)CCN(CCC(=O)OCCSSCCNC(=O)OC1CCC2(C)C(=CCC3C2CCC2(C)C(C(C)CCCC(C)C)CCC32)C1)CCC(=O)OCCSSCCNC(=O)OC1CCC2(C)C(=CCC3C2CCC2(C)C(C(C)CCCC(C)C)CCC32)C1 (centres unmarked) [Lipidoid 75-OCholB]
GFP^+ cells [4]: 63.0%
GFP^+ cells [5]: 60.9%
GFP^+ cells [1]: particular advantages over Lpf2k
GFP^+ cells ([1]; listed as mRNA/75-OCholB): 50.1%
GFP^+ cells [6]: 54.1%

CC(C)CCCC(C)C1CCC2C3CC=C4CC(OC(=O)NCCSSCCOC(=O)CCN(C)CCN(CCN(C)CCC(=O)OCCSSCCNC(=O)OC5CCC6(C)C(=CCC7C6CCC6(C)C(C(C)CCCC(C)C)CCC76)C5)CCN(C)CCC(=O)OCCSSCCNC(=O)OC5CCC6(C)C(=CCC7C6CCC6(C)C(C(C)CCCC(C)C)CCC76)C5)CCC4(C)C3CCC12C (centres unmarked) [Lipidoid 304-OCholB]
size measured by TEM [3]: 394.0 nm

CC(C)CCCC(C)C1CCC2C3CC=C4CC(OC(=O)NCCSSCCOC(=O)CCN(CCC(=O)OCCSSCCNC(=O)OC5CCC6(C)C(=CCC7C6CCC6(C)C(C(C)CCCC(C)C)CCC76)C5)CCN5CCCC5)CCC4(C)C3CCC12C (centres unmarked) [Lipidoid 76-OCholB]
GFP^+ cells [4]: 70.7%
GFP^+ cells [5]: 75.8%
GFP^+ cells [1]: 7.7%
GFP^+ cells [6]: 24.1%
genome editing efficacy in the spleen [2, 7]: Relative high genome editing efficacy
tdTomato positive cells in the spleen [2, 8]: significant amount of tdTomato positive cells
tdTomato signals in other organs (heart, liver, lung, kidney) [2, 8]: positive signals were not found
